Where two headings read alike, the source gives them in different places.

In one assay the test system is C4a/C4b mRNA. In words: Complement gene mRNA expression, TaqMan real-time PCR, Huh-7 cells. The settings on record: Homo sapiens. The class given is cell-based, human. An excerpt:
(§1) In this example, mRNA levels from cultured cells were quantitated. The assay can be used to determine the effect of compound(s) on regulating mRNA levels, including those compounds in the present invention. Complement genes are expressed at high endogenous levels, but their expression can also be stimulated with various cytokines in inflammatory conditions. Experiments in this example target both basal and inflammatory complement gene expression. Compound mediated changes in gene expression and resulting mRNA levels are presented in Tables 2, 3 and 4 as well as FIGS. 1, 2, 3 and 4 below.
(§2) Huh-7 and HepG2 cells are liver-derived cell lines and are models for what can occur in the liver. Huh-7 cells (JCRB Cell Bank) were introduced to 96-well plates (^˜2.5×10^5 per well) in 100 μL DMEM containing 10% (v/v) FBS, 100 U/mL penicillin, 100 ug/mL streptomycin and 5 ug/mL plasmocin (all reagents from Gibco, except for the former, which was obtained from Invivogen). After 24 h, Huh-7 cells were treated with compounds in the same media formulation used for plating, and supplemented with 0.1% DMSO for the amount of time indicated in tables 2, 3, and 4. For select experiments, 24 h post-plating, cells were treated with cytokines and the compound of interest simultaneously, for a total treatment time of 48 h. Alternatively, 24 h after plating, cells were pre-treated with cytokines for 24 h before adding the compound of interest for 48 h. HepG2 cells (ATCC) were cultured in 96-well plates (^˜2.5×10^5 per well) in MEM containing 10% FBS, 1× non-essential amino acids, 1 mM sodium pyruvate, 2 mM L-glutamine, 100 U/mL penicillin, 100 ug/mL streptomycin and 5 ug/mL plasmocin. Serum amount was reduced to 0.5% for treatments with compound or cytokines. Timing of treatment of HepG2 cells with compounds and cytokines was as described for Huh-7 cells. Primary human hepatocytes (CellzDirect/Life Technologies) were plated in collagen coated 96-well plates at 70 000 cells/well, then overlaid with Matrigel™ as recommended by the supplier. Cells were treated with compounds of interest and/or cytokines for the indicated time points in the recommended media supplemented with 0.1% DMSO and 10% FBS (v/v). Cells were harvested by mRNA Catcher PLUS Kit (Life Technologies) followed by real-time PCR using the RNA UltraSense One-Step qRT-PCR System. The level of the mRNA of interest was measured by TaqMan real-time PCR relative to the endogenous control cyclophilin A in the same sample. Data were acquired using the ViiA-7 Real Time PCR System (Applied Biosystems).
(§3) Downregulation of expression of components of the complement cascade will result in reduced activity of the pathway and thus will constitute a positive result. Tables 2 and 3 list the concentration of compounds at which the level of the indicated mRNA is reduced by 50%, as well as the duration of treatment with compound. Table 4 lists the maximum reduction in the indicated mRNA measured in primary human hepatocytes treated with compounds for up to 72 hours. FIGS. 1, 2, 3 and 4 show effects of compounds on cytokine-induced (i.e. inflammatory) expression of complement genes in Huh-7 cells and HepG2 cells.
(In general: Real-time PCR tracks product formation cycle by cycle.)

The next assay has as its system C3 mRNA. The description is as above. The format is cell-based, human. To be noted: Homo sapiens.
Excerpt: as §1, §2, §3

For another assay, the system named is C5 mRNA. The assay is described as above. The format is cell-based, human. The settings on record: Homo sapiens; Huh-7, 48 h treatment; read-out: C5 (48 h) mRNA, half maximal inhibitory concentration (IC50).
Excerpt: as §1, §2, §3

Assay [1] has as its system ex vivo perfused pig xenografts. The settings on record: porcine-to-human kidney perfusion animal model; cited from earlier work.
The subject of a further assay is erythrocyte lysis. To be noted: erythrocyte lysis animal model; cited from earlier work.
The conditions of assay [2]: hereditary angioedema; cited from earlier work.
The mark [3] stands for this setting: Huh-7, 48 h treatment (Table 3), read-out: mRNA expression in Huh-7 cells: IC50 (uM), C4.
Where [4] appears, read: Huh-7, 48 h treatment (Table 3), read-out: mRNA expression in Huh-7 cells: IC50 (uM), C3.
[5] abbreviates: Huh-7, 48 h treatment, read-out: C4a/C4b (48 h) mRNA, half maximal inhibitory concentration (IC50).
[6] abbreviates: Huh-7, 48 h treatment, read-out: C3 (48 h) mRNA, half maximal inhibitory concentration (IC50).

For the molecule `COc1cc(OCCN2CCCC2)cc(-c2nc3cc(OC)cc(OC)c3c(=O)[nH]2)c1` [RVX000641], the IC50 was 9.3 µM in the assay on C4a/C4b mRNA (setting [3]) and 12.6 µM with C3 mRNA (setting [4]).

For `COc1cc(OC)c2c(=O)[nH]c(-c3cc(C)c(OCCN4CCCC4)c(C)c3)nc2c1` [RVX000297], the IC50 in the assay on C5 mRNA was over 10 µM; with C4a/C4b mRNA (setting [5]) it was 4.5 µM; in the assay with C3 mRNA (setting [6]), 4.7 µM.

For `COc1cc(OC)c2c(=O)[nH]c(-c3ccc(N4CCNCC4)cc3)nc2c1` [RVX002141], the IC50 in the assay with C4a/C4b mRNA (setting [3]) worked out at 17.8 µM; in the assay with C3 mRNA (setting [4]), 15.4 µM.

As to `COC(=O)NCCOc1c(C)cc(-c2nc3cc(OC)cc(OC)c3c(=O)[nH]2)cc1C` [RVX002113], the IC50 was determined as 7.8 µM in the assay with C4a/C4b mRNA (setting [3]) and 5.8 µM in the assay on C3 mRNA (setting [4]).

As to `CC[C@H](C)[C@H](N)C(=O)N[C@H]1CSSC[C@@H](C(=O)N[C@H](C(N)=O)[C@@H](C)O)NC(=O)[C@H](CCCN=C(N)N)NC(=O)[C@H](Cc2cnc[nH]2)NC(=O)[C@H](Cc2cnc[nH]2)NC(=O)CNC(=O)[C@H](Cc2c[nH]c3ccccc23)NC(=O)[C@H](CC(=O)O)NC(=O)[C@H](CCC(N)=O)NC(=O)[C@H](C(C)C)NC(=O)[C@H](C(C)C)NC1=O` [compstatin], the graft survival entry in assay [1] is listed as “prolonged graft survival”. In addition, in the assay with erythrocyte lysis, the reduction of hemolysis is given as 50%.

In the case of `COc1cc(OC)c2c(=O)[nH]c(-c3ccc(N4CCN(C)CC4)cc3)nc2c1` [RVX000255, 5,7-dimethoxy-2-(4-(4-methylpiperazin-1-yl)phenyl)quinazolin-4(3H)-one], the IC50 stood at 17.4 µM in the assay on C4a/C4b mRNA (setting [3]) and 20.4 µM in the assay with C3 mRNA (setting [4]).

As to `COc1cc(OC)c2c(=O)[nH]c(-c3cc(C)c(OCCN4CCCC4)c(C)c3)nc2n1` [RVX000662], the IC50 was 21.1 µM in the assay on C4a/C4b mRNA (setting [3]) and 29.2 µM in the assay with C3 mRNA (setting [4]).

Consider `COc1cc(OC)c2c(=O)[nH]c(-c3cc(C)c(OCCNC(C)C)c(C)c3)nc2c1` [RVX002135], for which the results for the IC50 with C5 mRNA, in the assay with C4a/C4b mRNA (setting [5]) and in the assay on C3 mRNA (setting [6]) were 37.9 µM, 4.3 µM and 2.2 µM, respectively.

In the case of `COc1cc(OC)c2c(=O)[nH]c(-c3cc(C)c(OCCNS(C)(=O)=O)c(C)c3)nc2c1` [RVX002093, N-(2-(4-(5,7-dimethoxy-4-oxo-3,4-dihydroquinazolin-2-yl)-2,6-dimethylphenoxy)ethyl)methanesulfonamide], the IC50 with C4a/C4b mRNA (setting [3]) turned out to be 17.2 µM; in the assay on C3 mRNA (setting [4]), 18.5 µM.

`COc1cc(OC)c2c(=O)[nH]c(-c3cc(C)c(OCCN4CCC(F)(F)C4)c(C)c3)nc2c1` [RVX000843]: the IC50 is over 50 µM in the assay on C4a/C4b mRNA (setting [3]) and 11.1 µM in the assay with C3 mRNA (setting [4]).

For `COc1cc(OC)c2c(=O)[nH]c(-c3cc(C)c(O)c(C)c3)nc2c1` [RVX000206], the IC50 is 9.3 µM in the assay on C4a/C4b mRNA (setting [3]) and 3.6 µM in the assay with C3 mRNA (setting [4]).

For the molecule `COc1cc(OC)c2c(=O)[nH]c(-c3ccc(N4CCN(C(C)C)CC4)cc3)nc2c1` [RVX002109], the IC50 in the assay on C5 mRNA is over 50 µM; with C4a/C4b mRNA (setting [5]), 62.2 µM; in the assay with C3 mRNA (setting [6]), 34.8 µM.

Consider `COc1cc(OC)c2c(=O)[nH]c(-c3cc(C)c(OCCNC(C)=O)c(C)c3)nc2c1` [RVX002101], for which the IC50 with C4a/C4b mRNA (setting [3]) worked out at 22 µM; in the assay on C3 mRNA (setting [4]), 11.3 µM.

For `COc1cc(OC)c2c(=O)[nH]c(-c3ccc4[nH]c(CN(C)C)cc4c3)nc2c1` [RVX000668], the IC50 with C4a/C4b mRNA (setting [3]) was determined as 15.6 µM; in the assay on C3 mRNA (setting [4]) it was 9.5 µM.

In the case of `COc1cc(OC)c2c(=O)[nH]c(-c3cc(C)c(OCCNC(=O)C(C)C)c(C)c3)nc2c1` [RVX002103], the IC50 with C4a/C4b mRNA (setting [3]) came to 13.8 µM; in the assay on C3 mRNA (setting [4]), 13.9 µM.

As to `COc1cc(OC)c2c(=O)[nH]c(-c3cc(C)c(OCC(O)CO)c(C)c3)nc2c1` (stereo not drawn) [RVX000344], the IC50 in the assay with C4a/C4b mRNA (setting [3]) was found to be 15.6 µM; in the assay with C3 mRNA (setting [4]), 11.6 µM.

B1: Recombinant human C1INH: recombinant human C1 esterase inhibitor (protein, UniProt P05155 23-500, looked up)
Plasma protease C1 inhibitor: NPNATSSSSQDPESLQDRGEGKVATTVISKMLFVEPILEVSSLPTTNSTTNSATKITANTTDEPTTQPTTEPTTQPTIQPTQPTTQLPTDSPTQPTTGSFCPGPVTLCSDLESHSTEAVLGDALVDFSLKLYHAFSAMKKVETNMAFSPFSIASLLTQVLLGAGENTKTNLESILSYPKDFTCVHQALKGFTTKGVTSVSQIFHSPDLAIRDTFVNASRTLYSSSPRVLSNNSDANLELINTWVAKNTNNKISRLLDSLPSDTRLVLLNAIYLSAKWKTTFDPKKTRMEPFHFKNSVIKVPMMNSKKYPVAHFIDQTLKAKVGQLQLSHNLSLVILVPQNLKHRLEDMEQALSPSVFKAIMEKLEMSKFQPTLLTLPRIKVTTSQDMLSIMEKLEFFDFSYDLNLCGLTEDPDLQVSAMQHQTVLELTETGVEAAAASAISVARTLLVFEVQQPFLFVLWDQQHKFPVFMGRVYDPRA
For the molecule B1, the “symptoms of repeat HAE attacks” value in assay [2] is “effective in improving symptoms”.

(Values after patent publication US10111885B2, “Compositions and therapeutic methods for the treatment of complement-associated diseases” (Resverlogix Corp., priority 2015, dated 2018).)
